Target: T1, Paenibacillus lentus alkaline phosphatase AP1 (designated "Native"), serine (S) replacement for an aspartic acid (D), SEQ ID NO: 4 (Paenibacillus lentus, UniProt A0A3Q8S6G4, D102S)
T1 sequence (A0A3Q8S6G4 34-572 D102S): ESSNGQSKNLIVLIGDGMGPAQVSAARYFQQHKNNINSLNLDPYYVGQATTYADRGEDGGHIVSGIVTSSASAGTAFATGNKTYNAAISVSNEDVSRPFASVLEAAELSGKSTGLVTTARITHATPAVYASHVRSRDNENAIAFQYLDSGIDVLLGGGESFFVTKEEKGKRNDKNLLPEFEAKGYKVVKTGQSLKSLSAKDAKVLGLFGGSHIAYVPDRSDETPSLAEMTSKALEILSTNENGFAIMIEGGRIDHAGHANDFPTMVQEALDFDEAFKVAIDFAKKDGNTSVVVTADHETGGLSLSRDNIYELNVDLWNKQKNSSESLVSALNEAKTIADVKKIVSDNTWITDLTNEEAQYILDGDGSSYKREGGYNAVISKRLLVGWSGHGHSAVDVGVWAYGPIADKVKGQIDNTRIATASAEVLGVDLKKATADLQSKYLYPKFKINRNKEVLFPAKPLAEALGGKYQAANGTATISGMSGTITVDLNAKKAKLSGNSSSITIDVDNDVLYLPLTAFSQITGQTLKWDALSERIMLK
Experiment: Phosphatase kinetics with p-NPP, AP1 ("Native")
Type: biochemical
Procedure: FIG. 7 presents effect of pH on (A)Vmax (IU/mg) and (B) KM (μM) activity of AP1 (designated “Native”) and APHT (designated “HT”). Assays were performed at 40° C. with p-NPP as substrate in the concentration range 0-5 mM. The enzyme concentration was 2.5 μg/mL for the pH 8 and 0.4 mg/mL for pH 9-13).
FIG. 8 presents effect of pH on (A)Vmax (IU/mg) and (B) KM (μM) activity of AP1 (designated “Native”) and APHT (designated “HT”). Assays were performed at 50° C. with p-NPP as substrate in the concentration range 0-5 mM. The enzyme concentration was 2.5 μg/mL for the pH 8 and 0.4 mg/mL for pH 9-13).
Enzymes, including lysozyme and alkaline phosphatase, are recognized as disruptors of bacterial debris and inflammation. These enzymes reduce inflammation, including by lysing the peptidoglycans and LPS of bacteria, thus deactivating them and thereby bypassing the inflammatory response. An alkaline phosphatase was initially identified and modified from Paenibacillus lentus bacteria and expressed for application and use as a farm animal feed additive. This modified alkaline phosphatase is characterized by having a serine (S) replacement for an aspartic acid (D) in the native bacterial alkaline phosphatase protein sequence and is designated herein as AP1. […] The AP1 alkaline phosphate is described including in U.S. Pat. No. 9,326,535 issued May 3, 2016. The sequence of AP1 is as follows (the serine is in bold and underlined) (SEQ ID NO:4):
• 1 M DEA Buffer pH 10. Dissolve 10.5 g of diethanolamine in to 100 ml of water. The pH adjust with 1 M hydrochloric acid or 1 M NaOH. Filter sterilize and store at 4 C. • 0.5 M Tris Base Buffer pH 10 and 8. Dissolve 6.06 g of Tris in to 100 ml of water. The pH adjust with 1 M hydrochloric acid or 1 M NaOH. Filter sterilize and store at 4 C. • 0.1 M Borate Buffer pH 11 and 12. Dissolve 0.62 g Boric acid, 0.44 g NaCl and Sodium tetraborate 0.95 g in 100 ml H2O. The pH adjust with 1 M hydrochloric acid or 1 M NaOH. Filter sterilize and store at 4 C. • 1 M KCl/NaOH Buffer pH 13. Dissolve 7.4 g KCl in 100 ml water. The pH adjust with 1 M NaOH. Filter sterilize and store at 4 C. • 1 M MgCl2, 23.8 g MgCl2 anhydrous in […] water. Filter sterilize and store at 4 C 3. Activity Assay: p-NPP Substrate
Reactions were carried out at 40° C. using 50 mM Tris buffer pH 7 with 50 mM MgCl2 and at 50° C. using 50 mM DEA buffer pH 10 with 50 mM MgCl2. Enzyme was thawed, aliquoted in 500 μL vials and freeze at −80° C. For 100 μL volume of reaction, components were mixed in 96-well microplate (Fisher 12565501) following the order in TABLE 1. Every reaction condition was done by triplicated at least.
After the adding enzyme, the absorption of product was followed at 405 nm over 5 min in a M5 plate reader with intervals of 20 s. Initial rate was determined for each curve and product formed calculated using the extinction coefficient of 18.5 mM^−1·cm^−1 and a calculated pathlength of 0.5 cm. Initial rates where fitted to Michalis Menten model built in the Kaleidagraph software.
pH effect on enzyme activity was tested at 40 and 50° C. in the corresponding buffer with 50 mM MgCl2 using p-NPP as substrate in the concentration range 0-5.0 mM. The reaction started with the addition of enzyme (2.5 μg/mL for pH 8 and 0.4 μg/mL for pH 9-13) and the absorption at 405 nm was followed for 5 min. Every reaction condition was done by triplicated at least. The initial rates where fitted to Michalis Menten model built in the software Kaleidagraph.

With `O=[N+]([O-])c1ccc(OP(=O)(O)O)cc1` [p-NPP, p-nitrophenylphosphate] the Km (40° C., Borate pH 11) was 3340 µM, the Km (40° C., DEA pH 10) was 776 µM and the Km (40° C., Tris pH 8) was 65 µM. The Km (40° C., Tris pH 9) was 315 µM, the Km (50° C., Borate pH 11) was 573 µM and the Km (50° C., Borate pH 12) was 293 µM. The Km (50° C., KCl/NaOH (pH printed 204; Table 2: 13.0)) was 64 µM, the Km (50° C., Tris pH 8) was 383 µM and the Km (50° C., Tris pH 9) was 1440 µM.
